Experimental data taken from US12622910B2, “Inhibitors of Bruton's tyrosine kinase and methods of their use” (Janssen Pharmaceutica NV, priority 2021, dated 2026).

What was measured:
[1] = tested on: OCI-LY3 (Myd88/CARD11/A20 mutant); experiment: Antiproliferative activity, 8 days; format: cell-based, human
Experimental: In Vitro Activity in DLBCL Cell Lines—NFκB signaling regulates the secretion of multiple cytokines, including interleukin (IL)-6 and IL-10. Secretion of IL-6 and -10 by ABC-DLBCL OCI-LY-10 cells was measured using a MesoScale assay. […] To determine the anti-proliferative activity of the compound of formula (III), several ABC-DLBCL cell lines—OCI-LY-3, OCI-LY-10, TMD8, and HBL-1—were treated for 8 days. […] The OCI-LY-3 cell line, which harbors a CARD11 mutation downstream of BTK in the NF-κB signaling pathway, was completely insensitive to the compound of Formula (III) up to 2 μM. In 2 experiments, OCI-LY-3 cells were insensitive to the compound of Formula (III) at all concentrations up to 10 μM.

B-cell activation = experiment: Rat whole blood assay, anti-IgD-induced B-cell activation (CD86); format: cell-based, Wistar rat; conditions: anti-IgD stimulation, n=2, read-out: IC50, inhibition of B-cell activation in rat whole blood
Description: The compound of Formula (III) Inhibits B-cell receptor activation—Rat whole blood assays were used to assess the ability of the compound of Formula (III) to inhibit activation of primary B cells in whole blood. The assay used anti-IgD stimulation to trigger B-cell activation. Cell activation in freshly isolated blood was quantified by staining for cell surface expression of B220 to identify B cells and a cell activation marker CD86.
Rat Whole Blood Assay-Anti-rat IgD was purchased from Bio-Rad AbD Serotec, Ltd. (Oxford, United Kingdom). Rat B220-PE and rat CD86-FITC were purchased from eBioscience (San Diego, CA). Lysing buffer was purchased from BD Biosciences (San Diego, CA). To determine the potency of each compound, inhibition of anti-IgD-induced activation of B cells in rat whole blood was assessed by flow cytometry. […]
Inhibition percentage was determined by the following equation: Inhibition %=(ActBstim−ActBcompound)×100/(ActBstim−ActBunstim), where […], ActBunstim, and ActBcompound refer to the percentage of activated B cells of the stimulated (no compound), unstimulated (no antibody), and compound treated wells, respectively. The IC50 for each compound was then calculated from the inhibition % of the titrations using a 4-PL fit. […]

C=CC(=O)N[C@H]1CCC[C@H]1NC(=O)c1sc2nccc3c2c1NC(=O)N3c1cnc(CC(C)C)cc1C (atropisomer, axis not shown) [compound of Formula (III), N-((1R,2S)-2-Acrylamidocyclopentyl)-5-(S)-(6-isobutyl-4-methylpyridin-3-yl)-4-oxo-4,5-dihydro-3H-1-thia-3,5,8-triazaacenaphthylene-2-carboxamide]
sensitivity at all concentrations up to 10 μM ([1]; 2 experiments): insensitive
IC50 ([1]; Homo sapiens, OCI-Ly3, 192 h, 8 days, n = 4): > 2000 nM
IC50 (B-cell activation): 41 ± 11.7 nM
